From paper PMC10922772 (ACS infectious diseases, 2024)

Assays:
[1] = target: SARS-CoV-2 Mpro (Severe acute respiratory syndrome coronavirus 2, UniProt P0DTD1); experiment: biochemical; details: for IC50: IC50, enzyme 100 nM, substrate 20 μM, 10 min preincubation, pH 6.5; for activity reduction vs. compound 30: compared with more active diastereomer of 30; for inhibition at 20 µM: read-out: % inhibition at 20 μM
[2] = system: SARS-CoV-2 (Washington strain, 2020); experiment: microbe, parasite or virus in culture; format: cell-based; details: for EC68 (half-log reduction of virus titer): 0.01 MOI
[3] = Severe acute respiratory syndrome coronavirus 2, Vero, read-out: inhibition of SARS-CoV-2 replication

SMILES	IC50 [1] [µM]	EC68 (half-log reduction of virus titer) ([2]; Vero cells, 48 h) [μM]	inhibition at 20 µM [1] [%]	further results
CC(C)(C)c1ccc(N(C(=O)C2CO2)C(C(=O)NC2CCCCC2)c2cccnc2)cc1 [(R, S)- and (S, R)-30, N-(4-(tert-Butyl)phenyl)-N-(2-(cyclohexylamino)-2-oxo-1-(pyridin-3-yl)ethyl)oxirane-2-carboxamide]	0.76 ± 0.18	5		activity difference between the two separated diastereomers [1]: > 10 fold; EC90 ([2]; Severe acute respiratory syndrome coronavirus 2, Vero, 48 h): 15 µM
CC1OC1C(=O)N(c1ccc(C(C)(C)C)cc1)C(C(=O)NC1CCCCC1)c1cccnc1 [(R, S, R)- and (S, R, S)-35, N-(4-(tert-Butyl)phenyl)-N-(2-(cyclohexylamino)-2-oxo-1-(pyridin-3-yl)ethyl)-3-methyloxirane-2-carboxamide]	1.9 ± 0.21	15		activity difference between the two separated diastereomers [1]: > 10 fold; activity reduction vs. compound 30 [1]: ≤ 3 fold
CC(C)(C)NC(=O)C(c1cccnc1)N(C(=O)CCl)c1ccc(C(C)(C)C)cc1 (stereo not drawn) [Compound 13, N-(tert-Butyl)-2-(N-(4-(tert-butyl)phenyl)-2-chloroacetamido)-2-(pyridin-3-yl)acetamide]	0.6 ± 0.05	3		inhibition at 3 µM [2, 3]: 68%; inhibition at 5 µM [2, 3]: 97%; titer reduction ([2]; at 3 μM, Vero cells): 0.5 log; titer reduction ([2]; at 5 μM, Vero cells): 1.5 log
CC(C)(C)c1ccc(N(C(=O)C2OC2(C)C)C(C(=O)NC2CCCCC2)c2cccnc2)cc1 (stereo not drawn) [Compound 36, N-(4-(tert-Butyl)phenyl)-N-(2-(cyclohexylamino)-2-oxo-1-(pyridin-3-yl)ethyl)-3,3-dimethyloxirane-2-carboxamide]	2.5 ± 0.28			activity reduction vs. compound 30 [1]: ≤ 3 fold; antiviral activity (in words) ([2]; at 15 μM, Vero cells): inactive
CC(C)(C)c1ccc(N(C(=O)C2CO2)C(C(=O)NC2CCCCC2)c2cccnc2)cc1 [(R, R)- and (S, S)-30, N-(4-(tert-Butyl)phenyl)-N-(2-(cyclohexylamino)-2-oxo-1-(pyridin-3-yl)ethyl)oxirane-2-carboxamide]	9.9 ± 1.6			fold less active than the other (more active) diastereomer ([1]; between the two diastereomers of the same compound): 13 ×
O=C(CCl)Nc1ccc(N(C(=O)c2ccco2)C(C(=O)NCc2ccccc2)c2cccnc2)cc1 (stereo not drawn) [Compound 5, N-(2-(Benzylamino)-2-oxo-1-(pyridin-3-yl)ethyl)-N-(4-(2-chloroacetamido)phenyl)furan-2-carboxamide]	~20		47	
CC(=O)OCC(=O)N(c1ccc(C(C)(C)C)cc1)C(C(=O)NC(C)(C)C)c1cccnc1 (stereo not drawn) [Compound 33, 2-((4-(tert-Butyl)phenyl)(2-(tert-butylamino)-2-oxo-1-(pyridin-3-yl)ethyl)amino)-2-oxoethyl acetate]			0	
C=CC(=O)N(c1ccc(C(C)(C)C)cc1)C(C(=O)NC1CCCCC1)c1cccnc1 (stereo not drawn) [Compound 29, N-(4-(tert-Butyl)phenyl)-N-(2-(cyclohexylamino)-2-oxo-1-(pyridin-3-yl)ethyl)acrylamide]			30	
CC(C)(C)NC(=O)C(c1cccnc1)N(C(=O)CCl)c1ccc(-c2ccccc2)cc1 (stereo not drawn) [Compound 14, N-([1,1’-Biphenyl]-4-yl)-N-(2-(tert-butylamino)-2-oxo-1-(pyridin-3-yl)ethyl)-2-chloroacetamide]	0.95 ± 0.04			
